# From US20100331812A1, “Pharmaceutical Formulations for Iontophoretic Delivery of an Immunomodulator” (Nitric BioTherapeutics, Inc., priority 2009, published 2010)
# What was measured:
# [1] = Solubility of imiquimod in excipient formulation, by HPLC; type: physicochemical; conditions: about 3 mg/mL imiquimod in about 30% w/w PEG 400, 10% w/w glycerin, 3% w/w polysorbate 80 at pH 4
# Description: (§1) The effect of iontophoresis on the permeation profile of imiquimod across hairless rat skin in vitro was examined. The solubility of imiquimod was tested in various solvent matrices and a formulation with acceptable solubility was employed for further in vitro and in vivo studies as described herein. The following methods were performed.
# Using the above methods, various excipients were tested to prepare a formulation with sufficient solubility for imiquimod.
# [2] = In vivo skin depot formation and desorption, 2% w/w imiquimod formulation with Transcutol P; parameters: species or system hairless rat
# Description: In this example the formation and pharmacokinetics of an imiquimod skin depot following iontophoretic delivery in an in vivo hairless rat model were examined.
# (§2) A topical delivery system containing 2% w/w drug formulation (consisting of 20% PEG 400, 10% propylene glycol, 20% Transcutol P, 3% Tween 80 and 10% glycerin; in w/w, final pH 3.6) was employed. The formulation was loaded into a cartridge and iontophoresis (0.2 mA/cm^2, 15 min) was used to deliver the drug into the skin using the hairless rat model as described herein. A passive delivery control was run for comparison. […] Transepidermal water loss (TEWL) measurements were taken to ensure the removal of the stratum corneum.
# [3] = cited from earlier work
# [4] = Skin irritation or redness observed in the in vivo studies; parameters: species or system hairless rat; conditions: any of the in vivo studies
# Description: as §2
# [5] = In vivo skin depot quantification, 0.3% w/w imiquimod formulation
# Description: The effect of iontophoresis on its ability to enhance delivery of 0.3% w/w imiquimod (pH 4.0) formulation in vivo into the stratum corneum and the underlying skin (lower epidermis and dermis) was examined.
# Hairless rats were anesthetized using Ketamine and Xylazine. An area on the abdomen was marked and cleaned. Drug formulation was loaded onto an iontophoretic drug cartridge and was secured on the area with tape. For iontophoretic delivery, the cartridge was connected to a current source and a TransQ iontophoretic patch (Iomed) served as the counter electrode. A current density of 0.2 mA/cm^2 was applied for 15 min. At the end of 15 min, the drug loaded cartridges were removed and excess drug on the site was removed. Tape stripping (3M Transpore™ tape) was performed to quantify the drug levels in the stratum corneum. Transepidermal water loss (TEWL) measurements were also taken to ensure the complete removal of the stratum corneum. The rats were then euthanized and the skin samples were excised for further analysis. A skin extraction assay was performed to quantify the drug levels in the underlying skin immediately after 15 min iontophoresis or passive.
# [6] = In vitro permeation across hairless rat skin, Franz diffusion cells, with tape stripping and skin extraction; type: in vitro ADME; conditions: for cumulative amount of drug permeated at 24 hr, passive: passive diffusion
# Description: as §1
# For the in vitro studies, Franz diffusion cells were employed. Hairless rats were euthanized by carbon dioxide asphyxiation and the abdominal skin area was excised and carefully cleaned to remove excess fat. The skin was then mounted onto Franz diffusion cells. Citrate buffer with 20% ethanol was employed as the receptor buffer and the drug formulation was placed in the donor chamber. For iontophoretic delivery, a silver/silver chloride electrode system was used. […] Samples were taken at predetermined time points and the receptor chamber was replenished with fresh receptor buffer accordingly. At completion, the skin samples were dismounted and washed with the receptor buffer to remove excess drug. Tape stripping and skin extraction studies were performed to quantify the amount of the drug in the skin. All the samples were analyzed via HPLC (C18 column; mobile phase: acetonitrile/50 mM ammonium acetate (70:30); injection volume: 10 μl UV detection at 250 nm).
# [7] = in vivo, 2% w/w, 72 hrs after application
# [8] = 0.3% w/w, 0.2 mA/cm^2 for 15 min
# [9] = 0.3% w/w, pH 4.0, after about 15 min of treatment
smiles,measurement,setting,value
CC(C)Cn1cnc2c(N)nc3ccccc3c21 [Imiquimod],solubility level,[1],about 0.3%
same,imiquimod delivered to the skin,[2]; 15 min iontophoresis at 0.2 mA/cm^2,approximately 14 ug
same,"total skin drug level, iontophoretic delivery, after 15 min","[2]; in vivo, 2% w/w, pH 3.6, 0.2 mA/cm^2, 15 min",14.19 ± 2.07 µg
same,"total skin drug level, passive delivery, after 15 min","[2]; in vivo, 2% w/w, pH 3.6, passive, 15 min",3.26 ± 0.63 µg
same,"drug detection in the stratum corneum at 72 hrs, iontophoretic","[2]; in vivo, 2% w/w, 72 hrs",still detected
same,"drug detection in the underlying skin at 72 hrs, iontophoretic","[2]; in vivo, 2% w/w, 72 hrs",No drug was detected
same,"drug detection in the underlying skin at 72 hrs, passive","[2]; in vivo, 2% w/w, 72 hrs",No drug was detected
same,"total skin drug level, iontophoretic delivery, at 72 hrs",[2]; [7],5.50 ± 2.76 µg
same,"total skin drug level, passive delivery, at 72 hrs",[2]; [7],1.96 ± 0.37 µg
same,log P,[3],2.7
same,pKa,[3],7.3
same,irritation or redness of the skin,[4],not observed
same,"drug in the stratum corneum, iontophoresis",[5]; [8],11.91 µg
same,"drug in the underlying tissue, iontophoresis",[5]; [8],0.591 µg
same,"drug detection in the stratum corneum at 72 hr, iontophoresis","[5]; 0.3% w/w, 72 hr from treatment",still detected
same,"drug detection in the stratum corneum at 72 hr, passive","[5]; 0.3% w/w, 72 hr from treatment",no drug was detected
same,"drug detection in the underlying skin at 72 hr, iontophoresis","[5]; 0.3% w/w, 72 hr from treatment",still detected
same,"drug in the underlying tissue at 72 hr, passive","[5]; 0.3% w/w, 72 hr from treatment",small amount of drug was also present
same,"drug level in the stratum corneum, iontophoresis vs passive","[5]; 0.3% w/w, after 15 min of treatment",10 fold
same,"drug in the stratum corneum, passive",[5]; [9],1.07 µg
same,"drug in the underlying skin, passive",[5]; [9],0.40 µg
same,residence time of the depot in the stratum corneum after iontophoresis,[5]; iontophoresis,more than 72 hr
same,"cumulative amount of drug permeated at 24 hours, iontophoresis","[6]; 0.3% w/w formulation, 0.2 mA/cm^2 for 15 min, then passive diffusion to 24 hr",22.41 μg/cm^2
same,permeation following iontophoresis,"[6]; 0.3% w/w formulation, iontophoresis for 15 min, end of 24 hr",approximately 22 pg/cm
same,"cumulative amount of drug permeated at 24 hr, passive",[6]; 0.3% w/w formulation,2.24 μg/cm^2
same,"cumulative amount of drug permeated at 24 hr, passive","[6]; 0.3% w/w formulation, listed as imiquimod",approximately 2 μg/cm^2
same,"amount of drug in the underlying skin, iontophoretic","[6]; in vitro, 0.2 mA/cm^2 15 min, end of 24 hr study, skin extraction",6.31 µg
same,"amount of drug in the stratum corneum, iontophoretic","[6]; in vitro, 0.2 mA/cm^2 15 min, end of 24 hr study, tape stripping",7.53 µg
same,"amount of drug in the underlying skin, passive","[6]; in vitro, end of 24 hr study, skin extraction",6.27 µg
same,"amount of drug in the stratum corneum, passive","[6]; in vitro, end of 24 hr study, tape stripping",1.31 µg
